From patent US11000065B2, “Aerosol generation and exposure system” (CHARLES R. DREW UNIVERSITY OF MEDICINE AND SCIENCE, priority 2016, dated 2021)

Test: Electronic cigarette aerosol exposure experiment on mice: plasma concentrations
Settings: 9 mice; inhalation of aerosol from one electronic cigarette, 4 seconds per puff, one puff every 20 sec, 10 puffs per episode, one episode every 30 min, 4 episodes in 2 hours

## CN1CCCC1c1cccnc1 (stereo not shown) [nicotine]
  Mouse plasma nicotine concentration (mean±SD): 35.3 ± 20.0 ng/mL
